“And” between values parts separate entries of the source, which are not always exact repeats. Equal values may be shown once.
Tests used:
[1] = tested on: respiratory syncytial virus F protein; test: Immunization studies: anti-RSV-F titers after liposome-delivered vA317 self-replicating RNA; format: in vivo; settings: BALB/c mice, liposomes with 0.1 μg vA317 replicon (naked control 1 μg); for anti-RSV-F titer 4wp2 pool 1 / anti-RSV-F titer 4wp2 pool 2: 4 weeks after second dose; for anti-RSV-F titer 2wp1 pool 1 / anti-RSV-F titer 2wp1 pool 2: 2 weeks after first dose; for anti-RSV-F titer 2wp2 pool 1 / anti-RSV-F titer 2wp2 pool 2: 2 weeks after second dose
Protocol: BALB/c were immunized with liposomes comprising DSPC, cholesterol, and various lipids of the invention (or, for comparison, the cationic lipid 1,2-dilinoleyloxy-N,N-dimethyl-3-aminopropane or ‘DLinDMA’). The liposomes encapsulated 0.1 μg of “vA317” self-replicating RNA replicon which encodes respiratory syncytial virus F protein (see WO2012/031043). […] Doses were given either on days 0 & 21 or days 0 & 42. Immune responses were assessed 2 weeks after each dose (2wp1, 2wp2), and in some cases also at 4 weeks after the second dose (4wp2). Four series of experiments were performed, each with its own naked control.

[2] = pKa measurement of the cationic lipid (TNS fluorescence vs pH); format: physicochemical; settings: probe TNS (fluorescent probe), pKa of the cationic lipid of formula (I)
Protocol: Unless indicated otherwise, all pKa's referred to herein were measured at standard temperature and pressure. Also, unless otherwise indicated, all references to pKa are references to pKa measured using the following technique. 2 mM solution of lipid in ethanol was prepared by weighing the lipid and then dissolving it in ethanol. 0.3 mM solution of fluorescent probe TNS in ethanol:methanol 9:1 was prepared by first making 3 mM solution of TNS in methanol and then diluting to 0.3 mM with ethanol. An aqueous buffer containing 200 mM sodium phosphate dibasic and 100 mM citric acid was prepared. […] Using the Hamilton Microlab Star high throughput liquid handler and Hamilton run control software Software, 7.5 uL of probe/lipid mix were added to 242.5 uL of buffer in a 1 mL 96 well plate (model NUNC 260252, […] Nunc International). This was done with all twelve buffers. After mixing in 1 mL 96 well plate, 100 uL of each probe/lipid/buffer mixture was transferred to a 250 uL black with clear bottom 96 well plate (model COSTAR 3904, Corning). The fluorescence measurements are carried out on the SpectraMax M5 spectrophotometer using software SoftMax pro 5.2 and following parameters: After the measurement, the background fluorescence value of an empty well on the 96 well plate was subtracted from each probe/lipid/buffer mixture. The fluorescence intensity values were then normalized to the value at lowest pH. The normalized fluorescence intensity vs. pH chart was then plotted in the Microsoft Excel software. The twelve points were connected with a smooth line. The point on the line at which the normalized fluorescence intensity was equal to 0.5 was found. […] The pKa determined using this method is precise to about 0.1 pKa units.

[3] = Polydispersity index (PDI) of the lipid nanoparticle (dynamic light scattering); format: physicochemical; settings: Table 4, FVII siRNA LNP
Text: The lipid nanoparticles (LNPs) were formed by mixing equal volumes of lipids dissolved in alcohol with siRNA dissolved in a citrate buffer by an impinging jet process. […] The siRNA to total lipid ratio is approximately 0.05 (wt/wt). Where a LNP formulation contains four lipid components, the molar ratios correspond to the type of lipid as it appears in the first four columns of the table, in the order that they appear. The ratio of the lipids ranges from 20 to 70 mole percent for the cationic lipid with a target of 40-60, the mole percent of helper lipid ranges from 20 to 70 with a target of 30 to 50, the mole percent of neutral lipid ranges from 0-30, the mole percent of PEG lipid has a range from 1 to 6 with a target of 2 to 5. The concentration of siRNA solution ranges from 0.7 to 1.0 mg/mL with a target of 0.8 to 0.9 mg/mL in a sodium citrate: sodium chloride buffer pH 4-6, with a target of 4.5-5.5. The LNPs are formed by mixing equal volumes of lipid solution in ethanol with siRNA dissolved in a citrate buffer by an impinging jet process through a mixing device with ID ranging from 0.25 to 2.0 mm at a flow rate from 10 to 640 mL/min. The mixed LNP solution is held at room temperature for 0-24 hrs prior to a dilution step. […] The final product is sterile filtered and stored at 4° C. Unless indicated otherwise, all PDIs referred to herein are the PDI of the fully formed nanoparticle, as measured by dynamic light scattering on a Malvern Zetasizer. The nanoparticle sample was diluted in phosphate buffered saline (PBS) so that the count rate was approximately 200-400 kcts. The data is presented in Tables 4 and 5 as a weighted average of the intensity measure.

| Compound | anti-RSV-F titer 4wp2 pool 1 ([1]; Course A = days 0 & 21) | anti-RSV-F titer 4wp2 pool 2 ([1]; Course A = days 0 & 21) | pKa ([2]; Table 4) | anti-RSV-F titer 2wp1 pool 1 ([1]; Course A = days 0 & 21) | anti-RSV-F titer 2wp1 pool 2 ([1]; Course A = days 0 & 21) | anti-RSV-F titer 2wp2 pool 1 ([1]; Course A = days 0 & 21) | anti-RSV-F titer 2wp2 pool 2 ([1]; Course A = days 0 & 21) | also measured |
| --- | --- | --- | --- | --- | --- | --- | --- | --- |
| CCCCC/C=C\C/C=C\CCCCCCCCOCC(CN(C)C)OCCCCCCCC/C=C\C/C=C\CCCCC (stereo not shown) [DLinDMA, 1,2-dilinoleyloxy-N,N-dimethyl-3-aminopropane, reference compound] | 26504 and 50799 | 28008 and 35992 |  |  |  |  |  | anti-RSV-F titer 2wp1 pool 1 ([1]; Course B = days 0 & 42): 13; anti-RSV-F titer 2wp1 pool 2 ([1]; Course B = days 0 & 42): 4; anti-RSV-F titer 2wp2 pool 1 ([1]; Course B = days 0 & 42): 18290; anti-RSV-F titer 2wp2 pool 2 ([1]; Course B = days 0 & 42): 5538; anti-RSV-F titer 4wp2 pool 1 ([1]; Course B = days 0 & 42): 13936; anti-RSV-F titer 4wp2 pool 2 ([1]; Course B = days 0 & 42): 7020 |
| CCCCCCCC/C=C\CCCCCCCCOc1cc(CN(C)C)cc(OCCCCCCCC/C=C\CCCCCCCC)c1 [Example 1] |  |  | 5.59 |  |  |  |  | pKa ([2]; Table 5): 5.59; PDI ([3]; Chol/DSPC/stealth lipid PEG-DMG, 45/44/9/2): 0.05 |
| CCCCCCCC/C=C\CCCCCCCCOc1cc(OCCCCCCCC/C=C\CCCCCCCC)cc(C2OCC(CN3CCCC3)O2)c1 (stereo not shown) [Example 9] |  |  |  | 1832 | 1352 | 29707 | 18788 |  |
| CCCCCCCC/C=C\CCCCCCCCOc1cc(OCCCCCCCC/C=C\CCCCCCCC)cc(C2OCC(COC(=O)CN(C)C)O2)c1 (stereo not shown) [Example 12] |  |  |  |  |  |  |  | anti-RSV-F titer 2wp1 pool 1 ([1]; Course B = days 0 & 42): 88; anti-RSV-F titer 2wp1 pool 2 ([1]; Course B = days 0 & 42): 128; anti-RSV-F titer 2wp2 pool 1 ([1]; Course B = days 0 & 42): 4550; anti-RSV-F titer 2wp2 pool 2 ([1]; Course B = days 0 & 42): 4828; anti-RSV-F titer 4wp2 pool 1 ([1]; Course B = days 0 & 42): 4787; anti-RSV-F titer 4wp2 pool 2 ([1]; Course B = days 0 & 42): 3972 |
| CCCCC/C=C\C/C=C\CCCCCCCCOc1cc(COC(=O)CCCN(C)C)cc(OCCCCCCCC/C=C\C/C=C\CCCCC)c1 [Example 13] |  |  |  | 495 | 620 | 7157 | 12316 |  |
| CCCCC/C=C\C/C=C\CCCCCCCCOc1cc(C(=O)OCCCN(C)C)cc(OCCCCCCCC/C=C\C/C=C\CCCCC)n1 [Example 25] | 2850 | 1767 |  | 1217 | 1883 | 1611 | 1156 |  |
| CCCCC/C=C\C/C=C\CCCCCCCC(=O)OCc1cc(COC(=O)CCCCCCC/C=C\C/C=C\CCCCC)cc(COC(=O)CCN(C)C)c1 [Example 29] | 23930 | 37278 |  | 2101 | 3584 | 12529 | 18669 |  |
| CCCCC/C=C\C/C=C\CCCCCCCCOc1cc(COC(=O)CCN(C)C)cc(OCCCCCCCC/C=C\C/C=C\CCCCC)n1 [Example 31] |  |  | 6.01 |  |  |  |  | PDI ([3]; Chol/DSPC/stealth lipid S010, 45/44/9/2): 0.049 |
| CCCCC/C=C\C/C=C\CCCCCCCC(=O)OCCCCCCOc1cc(CN(C)C)cc(OCCCCCCOC(=O)CCCCCCC/C=C\C/C=C\CCCCC)c1 [Example 45] |  |  | 5.57 |  |  |  |  |  |
| CCCCCCCCC(CCCCCCCC)CC(=O)OCCCOc1cc(CN(C)C)cc(OCCCOC(=O)CC(CCCCCCCC)CCCCCCCC)c1 [Example 56] |  |  | 5.93 |  |  |  |  |  |
| CCCCC/C=C\C/C=C\CCCCCCCC(=O)OCCOCCOc1cc(CN(CC)CC)cc(OCCOCCOC(=O)CCCCCCC/C=C\C/C=C\CCCCC)c1 [Example 58] |  |  | 5.9 |  |  |  |  |  |
| CCCCCCCCCCCC(=O)OCCCCCCOc1cc(CN(C)C)cc(OCCCCCCOC(=O)CCCCCCCCCCC)c1 [Example 59] |  |  | 6.09 |  |  |  |  |  |
| CCCCC/C=C\C/C=C\CCCCCCCCNC(=O)c1cc(COC(=O)CCCN(C)C)cc(C(=O)NCCCCCCCC/C=C\C/C=C\CCCCC)c1 [Example 66] | 75 | 75 |  | 75 | 75 | 75 | 75 |  |
| CCCCC/C=C\C/C=C\CCCCCCCCOc1cc(COC(=O)OCCCN(C)C)cc(OCCCCCCCC/C=C\C/C=C\CCCCC)c1 [Example 68] | 12963 | 17734 |  | 1031 | 494 | 11315 | 7800 |  |
| CCCCC/C=C\C/C=C\CCCCCCCC(=O)OCc1cc(COC(=O)CCCCCCC/C=C\C/C=C\CCCCC)cc(COC(=O)OCCN(C)C)c1 [Example 70] | 18779 | 18358 |  | 1416 | 3110 | 31550 | 20124 |  |
| CCCCCCCCCOC(=O)CCCCCCC(=O)OCc1cc(COC(=O)CCCCCCC(=O)OCCCCCCCCC)cc(CN(C)C)c1 [Example 79] |  |  | 6.48 |  |  |  |  |  |
| CCCCC/C=C\C/C=C\CCCCCCCCOc1cc(CCCOC(=O)CCN(C)C)cc(OCCCCCCCC/C=C\C/C=C\CCCCC)c1 [Example 81] | 41921 | 34684 |  | 1779 | 1553 | 24648 | 15304 |  |
| CCCCCCCC(=O)OCCCCCC(=O)OCc1cc(COC(=O)CCCCCOC(=O)CCCCCCC)cc(CN(C)C)c1 [Example 85] |  |  | 5.72 |  |  |  |  |  |
| CCCCCCCCCCCCOC(=O)CCCCCOc1cc(CN(C)C)cc(OCCCCCC(=O)OCCCCCCCCCCCC)c1 [Example 90] |  |  | 5.81 |  |  |  |  |  |
| CCCCC/C=C\C/C=C\CCCCCCCC(=O)OCCCOc1cc(CN(C)C)cc(OCCCOC(=O)CC(CCCCCCCC)CCCCCCCC)c1 [Example 97] |  |  | 5.82 |  |  |  |  |  |
| CCCCCCCCC(CCCCCCCC)CC(=O)OCc1cc(COC(=O)CCCCCCCOC(=O)CCCCCCC)cc(CN(C)C)c1 [Example 101] |  |  | 6.32 |  |  |  |  |  |
| CCCCC/C=C\C/C=C\CCCCCCCCOc1cc(CN(C)C)cc(OCCCCOC(=O)CCC(COC(=O)CCCCC)COC(=O)CCCCC)c1C [Example 104] |  |  | 6.02 |  |  |  |  |  |
